Where two headings read alike, the source gives them in different places.
How the values were obtained:
[1] = tested on: Key Broadleaf Weed and Crop Species; assay: Post-Emergent Test II: postemergent herbicidal activity, visual rating after 14 d (Table 7); assay type: in vivo; settings: post-emergence, 336 h; for pest or weed control at 35 g/ha: 35 g ai/ha; for pest or weed control at 70 g/ha: 70 g ai/ha; for pest or weed control at 140 g/ha: 140 g ai/ha
Outline: (§1)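 Visual 0-100% injury score (0 no injury, 100 complete kill) at 14 d post-spray, relative to untreated plants. Seedlings at 1st-2nd true leaf stage; track sprayer at 187 L/ha, highest rate plus ½×, ¼×, ⅛×, 1/16× serial dilutions. Subirrigated after treatment.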

[2] = tested on: Key Grass and Sedge Weeds as well as Grass Crops; assay: Post-Emergent Test II: postemergent herbicidal activity, visual rating after 14 d (Table 8); assay type: in vivo; settings: post-emergence, 336 h; for pest or weed control at 35 g/ha: 35 g ai/ha; for pest or weed control at 70 g/ha: 70 g ai/ha; for pest or weed control at 140 g/ha: 140 g ai/ha
Outline: as §1

[3] = lambsquarters (Chenopodium album), read-out: Visual Growth Reduction (%) 14 Days After Application CHEAL
[4] = oilseed rape, canola (Brassica napus), read-out: Visual Growth Reduction (%) 14 Days After Application BRSNN
[5] = redroot pigweed (Amaranthus retroflexus), read-out: Visual Growth Reduction (%) 14 Days After Application AMARE
[6] = sunflower (Helianthus annuus), read-out: Visual Growth Reduction (%) 14 Days After Application HELAN
[7] = velvetleaf (Abutilon theophrasti), read-out: Visual Growth Reduction (%) 14 Days After Application ABUTH
[8] = wild poinsettia (Euphorbia heterophylla), read-out: Visual Growth Reduction (%) 14 Days After Application EPHHL
[9] = barnyardgrass (Echinochloa crus-galli), read-out: Visual Growth Reduction (%) 14 Days After Application ECHCG
[10] = giant foxtail (Setaria faberi), read-out: Visual Growth Reduction (%) 14 Days After Application SETFA
[11] = maize, corn (Zea mays), read-out: Visual Growth Reduction (%) 14 Days After Application ZEAMX
[12] = rice (Oryza sativa), read-out: Visual Growth Reduction (%) 14 Days After Application ORYSA
[13] = wheat, spring (Triticum aestivum), read-out: Visual Growth Reduction (%) 14 Days After Application TRZAS
[14] = yellow nutsedge (Cyperus esculentus), read-out: Visual Growth Reduction (%) 14 Days After Application CYPES

COC(=O)c1nc(-c2cc3c(cc2OC)OC(F)(F)O3)cc(N)c1Cl [Compound 38] gave a pest or weed control at 35 g/ha [1, 3] of 0 to 29%, a pest or weed control at 70 g/ha [1, 3] of 0 to 29% and a pest or weed control at 140 g/ha [1, 3] of 0 to 29%. It also gave a pest or weed control at 35 g/ha [1, 4] of 0 to 29%, a pest or weed control at 70 g/ha [1, 4] of 0 to 29% and a pest or weed control at 140 g/ha [1, 4] of 0 to 29%. For the same compound, the pest or weed control at 35 g/ha [1, 5] was 0 to 29%, the pest or weed control at 70 g/ha [1, 5] was 60 to 74% and the pest or weed control at 140 g/ha [1, 5] was 60 to 74%. The pest or weed control at 35 g/ha [1, 6] was 0 to 29%, the pest or weed control at 70 g/ha [1, 6] was 0 to 29% and the pest or weed control at 140 g/ha [1, 6] was 60 to 74%. The pest or weed control at 35 g/ha [1, 7] was 0 to 29%, the pest or weed control at 70 g/ha [1, 7] was 0 to 29% and the pest or weed control at 140 g/ha [1, 7] was 0 to 29%. The pest or weed control at 35 g/ha [1, 8] was 0 to 29%, the pest or weed control at 70 g/ha [1, 8] was 0 to 29% and the pest or weed control at 140 g/ha [1, 8] was 0 to 29%. It also gave a pest or weed control at 35 g/ha [2, 9] of 0 to 29%, a pest or weed control at 70 g/ha [2, 9] of 0 to 29% and a pest or weed control at 140 g/ha [2, 9] of 0 to 29%. It also gave a pest or weed control at 35 g/ha [2, 10] of 0 to 29%, a pest or weed control at 70 g/ha [2, 10] of 0 to 29% and a pest or weed control at 140 g/ha [2, 10] of 0 to 29%. For the same compound, the pest or weed control at 35 g/ha [2, 11] was 0 to 29%, the pest or weed control at 70 g/ha [2, 11] was 0 to 29% and the pest or weed control at 140 g/ha [2, 11] was 0 to 29%. It also gave a pest or weed control at 35 g/ha [2, 12] of 0 to 29%, a pest or weed control at 70 g/ha [2, 12] of 0 to 29% and a pest or weed control at 140 g/ha [2, 12] of 0 to 29%. It also gave a pest or weed control at 35 g/ha [2, 13] of 0 to 29%, a pest or weed control at 70 g/ha [2, 13] of 0 to 29% and a pest or weed control at 140 g/ha [2, 13] of 0 to 29%. For the same compound, the pest or weed control at 35 g/ha [2, 14] was 0 to 29%, the pest or weed control at 70 g/ha [2, 14] was 0 to 29% and the pest or weed control at 140 g/ha [2, 14] was 0 to 29%.
COC(=O)c1nc(-c2ccc3c(c2F)OC(F)(F)O3)cc(N)c1Cl [Compound 37, Methyl 4-amino-3-chloro-6-(2,2,4-trifluorobenzo-[d][1,3]dioxol-5-yl)picolinate] was tested, and the pest or weed control at 35 g/ha [1, 3] was 95 to 100%, the pest or weed control at 70 g/ha [1, 3] was 95 to 100% and the pest or weed control at 140 g/ha [1, 3] was 95 to 100%. It also gave a pest or weed control at 35 g/ha [1, 4] of 85 to 94%, a pest or weed control at 70 g/ha [1, 4] of 95 to 100% and a pest or weed control at 140 g/ha [1, 4] of 95 to 100%. The pest or weed control at 35 g/ha [1, 5] was 85 to 94%, the pest or weed control at 70 g/ha [1, 5] was 95 to 100% and the pest or weed control at 140 g/ha [1, 5] was 95 to 100%. For the same compound, the pest or weed control at 35 g/ha [1, 6] was 0 to 29%, the pest or weed control at 70 g/ha [1, 6] was 30 to 44% and the pest or weed control at 140 g/ha [1, 6] was 75 to 84%. The pest or weed control at 35 g/ha [1, 7] was 95 to 100%, the pest or weed control at 70 g/ha [1, 7] was 95 to 100% and the pest or weed control at 140 g/ha [1, 7] was 95 to 100%. For the same compound, the pest or weed control at 35 g/ha [1, 8] was 95 to 100%, the pest or weed control at 70 g/ha [1, 8] was 95 to 100% and the pest or weed control at 140 g/ha [1, 8] was 95 to 100%. The pest or weed control at 35 g/ha [2, 9] was 95 to 100%, the pest or weed control at 70 g/ha [2, 9] was 95 to 100% and the pest or weed control at 140 g/ha [2, 9] was 95 to 100%. The pest or weed control at 35 g/ha [2, 10] was 60 to 74%, the pest or weed control at 70 g/ha [2, 10] was 95 to 100% and the pest or weed control at 140 g/ha [2, 10] was 95 to 100%. The pest or weed control at 35 g/ha [2, 11] was 60 to 74%, the pest or weed control at 70 g/ha [2, 11] was 75 to 84% and the pest or weed control at 140 g/ha [2, 11] was 85 to 94%. For the same compound, the pest or weed control at 35 g/ha [2, 12] was 0 to 29%, the pest or weed control at 70 g/ha [2, 12] was 0 to 29% and the pest or weed control at 140 g/ha [2, 12] was 0 to 29%. For the same compound, the pest or weed control at 35 g/ha [2, 13] was 0 to 29%, the pest or weed control at 70 g/ha [2, 13] was 0 to 29% and the pest or weed control at 140 g/ha [2, 13] was 0 to 29%. For the same compound, the pest or weed control at 35 g/ha [2, 14] was 95 to 100%, the pest or weed control at 70 g/ha [2, 14] was 95 to 100% and the pest or weed control at 140 g/ha [2, 14] was 95 to 100%.
With Nc1cc(-c2cc3c(cc2F)OC(F)(F)O3)nc(C(=O)O)c1Cl [Compound 42] the pest or weed control at 35 g/ha [1, 3] was 85 to 94%, the pest or weed control at 70 g/ha [1, 3] was 85 to 94% and the pest or weed control at 140 g/ha [1, 3] was 85 to 94%. The pest or weed control at 35 g/ha [1, 4] was 95 to 100%, the pest or weed control at 70 g/ha [1, 4] was 95 to 100% and the pest or weed control at 140 g/ha [1, 4] was 95 to 100%. It also gave a pest or weed control at 35 g/ha [1, 5] of 95 to 100%, a pest or weed control at 70 g/ha [1, 5] of 95 to 100% and a pest or weed control at 140 g/ha [1, 5] of 95 to 100%. The pest or weed control at 35 g/ha [1, 6] was 45 to 59%, the pest or weed control at 70 g/ha [1, 6] was 60 to 74% and the pest or weed control at 140 g/ha [1, 6] was 75 to 84%. The pest or weed control at 35 g/ha [1, 7] was 85 to 94%, the pest or weed control at 70 g/ha [1, 7] was 85 to 94% and the pest or weed control at 140 g/ha [1, 7] was 85 to 94%. For the same compound, the pest or weed control at 35 g/ha [1, 8] was 95 to 100%, the pest or weed control at 70 g/ha [1, 8] was 95 to 100% and the pest or weed control at 140 g/ha [1, 8] was 95 to 100%. It also gave a pest or weed control at 35 g/ha [2, 9] of 95 to 100%, a pest or weed control at 70 g/ha [2, 9] of 95 to 100% and a pest or weed control at 140 g/ha [2, 9] of 95 to 100%. The pest or weed control at 35 g/ha [2, 10] was 60 to 74%, the pest or weed control at 70 g/ha [2, 10] was 75 to 84% and the pest or weed control at 140 g/ha [2, 10] was 75 to 84%. It also gave a pest or weed control at 35 g/ha [2, 11] of 60 to 74%, a pest or weed control at 70 g/ha [2, 11] of 75 to 84% and a pest or weed control at 140 g/ha [2, 11] of 75 to 84%. It also gave a pest or weed control at 35 g/ha [2, 12] of 30 to 44%, a pest or weed control at 70 g/ha [2, 12] of 30 to 44% and a pest or weed control at 140 g/ha [2, 12] of 30 to 44%. The pest or weed control at 35 g/ha [2, 13] was 60 to 74%, the pest or weed control at 70 g/ha [2, 13] was 60 to 74% and the pest or weed control at 140 g/ha [2, 13] was 60 to 74%. For the same compound, the pest or weed control at 35 g/ha [2, 14] was 95 to 100%, the pest or weed control at 70 g/ha [2, 14] was 95 to 100% and the pest or weed control at 140 g/ha [2, 14] was 95 to 100%.

From patent publication US9149038B2, “4-amino-6-(heterocyclic)picolinates and 6-amino-2-(heterocyclic)pyrimidine-4-carboxylates and their use as herbicides” (Dow AgroSciences LLC, priority 2013, dated 2015)
